{
  "source": "patent US11382907B2",
  "about": "“Methods and compositions for treating aging-associated impairments using CCR3-inhibitors” (Alkahest, Inc., priority 2017, dated 2022)",
  "key": {"GFAP-positive astroglia": {"test_system": "GFAP-positive astroglia", "assay": "IHC of GFAP-positive astroglia in hippocampus of mice given daily LPS", "format": "in vivo, C57Bl/6 mice", "conditions": "3-month-old mice, daily LPS IP 7 weeks, 30 mg/kg PO BID 4 weeks", "protocol": "(§1) For fluorescent microscopy, the following antibodies were used in the given concentrations: GFAP, 1:500, DAKO; Iba1, 1:1000, Wako; and BrdU, 1:500, AbCam. Antigen retrieval protocol was required for BrdU (2N HCl, 37 C, 30 min) prior to blocking. The appropriate fluorescent secondary antibodies were applied the next day at a concentration of 1:300 for one hour at room temperature. Prolong Gold Mounting Media was used to coverslip the slides. Images were acquired on a light microscope at 5× magnification.\n(§2) Three-month-old C57 mice were given daily doses of lipopolysaccharide (LPS) 0.5 mg/kg IP to induce inflammation and treated with Compound 1 for up to 4 weeks.\n(§3) Treatment Groups: • Treatment Group 1, Vehicle treatment: 3-month-old C57 mice (n=10) received daily IP injection of LPS for 7 weeks and twice daily (BID) oral gavage (PO) treatment of vehicle solution for up to 4 weeks. • Treatment Group 2, Vehicle treatment and Oxazolone treatment: 3-month-old C57 mice (n=10) received daily IP injection of LPS for 7 weeks and twice daily (BID) oral gavage (PO) treatment of vehicle solution for up to 4 weeks. • Treatment Group 3, Compound 1 treatment and Oxazolone treatment: 3-month-old C57 mice (n=9) received daily IP injection of LPS for 7 weeks and twice daily (BID) oral gavage (PO) treatment of Compound 1, 30 mg/kg, for up to 4 weeks."}, "[1]": {"test_system": "doublecortin-positive cells in the hippocampus", "assay": "Histology: doublecortin (DCX) positive cells in hippocampus of aged mice", "format": "in vivo, C57Bl/6 mice", "conditions": "18-month-old mice; four-week subcutaneous dosing by pump, versus IgG control", "excerpt": "Mice were taken down on the day following the end of behavior testing. Anesthesia was induced by 2,2,2-tribromoethanol and mice were subsequently perfused with 0.9% saline trans-cardially. The brains were dissected and cut sagitally in two even halves. One half was snap frozen for later use in dry ice, and the other was fixed in 4% paraformaldehyde in PBS for use in immunohistochemistry. After two days of fixation, the hemibrains were transferred to a 30% sucrose in PBS solution and changed after two days. Hemibrains were sectioned at 30 um on a microtome at −22° C. Brain sections were stored in cryoprotectant media at −20° C. until needed for staining. Blocking was done on free floating sections in the appropriate serum at 10% serum in PBST 0.5%. Primary antibodies were incubated overnight at 4 C. For light microscopy, the following antibodies were used in the given concentrations: DCX, 1:200, Santa Cruz BioTech, CD68, 1:1000. AbD Serotec. Secondary biotinylated antibodies were applied the next day at a concentration of 1:300. Staining visualization was achieved by reaction with the ABC kit (Vector) and diaminobenzidine (Sigma). Dehydration of the mounted slides was achieved using ethanol and xylene dips. Images were acquired on a Leica light microscope at 5× magnification. […]"}, "[2]": {"assay": "Compound plasma levels in mice under Alzet pump infusion", "format": "in vivo, C57BL/6 mice", "conditions": "C57BL/6, mouse, other: Alzet pump infusion (perfused), 25 µg/hr, mean±s.e.m., read-out: level of the compound in plasma", "protocol": "Compound levels were measured by MS/MS by Quintara (Hayward, Calif.).\nFIG. 6 depicts the levels of the compound of the invention that were detected in mouse CSF for both the young and old groups (both below 10 nM)."}, "Iba1-positive microglia": {"test_system": "Iba1-positive microglia", "assay": "IHC of Iba1-positive microglia in hippocampus of mice given daily LPS", "format": "in vivo, C57Bl/6 mice", "conditions": "3-month-old mice, daily LPS IP 7 weeks, 30 mg/kg PO BID 4 weeks", "protocol": "as §1, §2, §3"}},
  "note": "“Also recorded” adds a separate entry of the source.",
  "data": [
    {"smiles": "Cc1cc(C(=O)N(C)C)cc(NC(=O)[C@H]2CCC(=O)N2C2CCN(Cc3ccc(Cl)c(C)c3)CC2)n1", "note": "[Compound 1]", "values": [
      {"measurement": "GFAP+ immunoreactivity (total astrocytes) in hippocampus", "setting": "GFAP-positive astroglia", "result": "dramatically decreased GFAP+ immunoreactivity; also recorded: trend towards decrease"},
      {"measurement": "doublecortin-positive cells in the hippocampus", "setting": "[1]", "result": "increased the numbers of doublecortin-positive cells"},
      {"measurement": "concentration at 4 weeks", "setting": "[2]; old (18-month) mice perfused 4 weeks at 0.5 μL/hr of 50 mg/mL solution", "result": "355 ± 43", "unit": "nM"},
      {"measurement": "concentration at 2 weeks", "setting": "[2]; young (2-month-old) mice perfused 2 weeks at 0.5 μL/hr of 50 mg/mL solution", "result": "352 ± 31", "unit": "nM"},
      {"measurement": "Iba1+ immunoreactivity (total microglia) in hippocampus", "setting": "Iba1-positive microglia", "result": "dramatically decreased Iba1+ immunoreactivity; also recorded: trend towards decrease"}
    ]}
  ]
}
